Measurements as given in ChEMBL document CHEMBL1201862, “PubChem BioAssay data set” (2004).
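Where inhibition never reached the appropriate level, the endpoint shown equals the highest concentration tested. Otherwise, values were interpolated linearly from a five-concentration, 48-hour dose response in 96-well plates. GI50 is the concentration that inhibits growth by half.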 The source made the active and inactive calls. Rule as the data show it: active = GI50 up to about 1.1 µM and inactive = higher.

Key:
Assay in all cases: NCI-60 cell line screen, 48 h
[1] = test system: OVCAR-4
[2] = test system: NCI/ADR-RES
[3] = test system: LOX IMVI
[4] = test system: MOLT-4
[5] = test system: UACC-62
[6] = test system: OVCAR-3
[7] = test system: SF-295
[8] = test system: HOP-62
[9] = test system: T47D
[10] = test system: HOP-92
[11] = test system: NCI-H460
[12] = test system: ACHN
[13] = test system: SNB-75
[14] = test system: OVCAR-8
[15] = test system: SW-620
[16] = test system: DU-145
[17] = test system: SK-MEL-2
[18] = test system: SN12C
[19] = test system: SK-OV-3
[20] = test system: COLO 205
[21] = test system: Malme-3M
[22] = test system: HT-29
[23] = test system: SF-268
[24] = test system: MDA-MB-231
[25] = test system: SK-MEL-5
[26] = test system: A549
[27] = test system: PC-3
[28] = test system: IGROV-1
[29] = test system: SR
[30] = test system: UACC-257
[31] = test system: MDA-N
[32] = test system: HCT-116
[33] = test system: EKVX
[34] = test system: M14
[35] = test system: HCT-15
[36] = test system: NCI-H522
[37] = test system: Hs-578T
[38] = test system: 786-0
[39] = test system: OVCAR-5
[40] = test system: UO-31
[41] = test system: TK-10
[42] = test system: K562
[43] = test system: RPMI-8226
[44] = test system: CCRF-CEM
[45] = test system: SNB-19
[46] = test system: SF-539
[47] = test system: MDA-MB-435
[48] = test system: NCI-H23
[49] = test system: HL-60
[50] = test system: RXF 393
[51] = test system: A498
[52] = test system: HCC 2998
[53] = test system: MCF7
[54] = test system: CAKI-1
[55] = test system: U-251
[56] = test system: SK-MEL-28
[57] = test system: NCI-H226
[58] = test system: KM12

Q: What does the source list for `CC1(C)OC2C(COC(c3ccccc3)(c3ccccc3)c3ccccc3)OC(c3c[nH]c4c(N)ncnc34)C2O1` (stereo not given)?
A: GI50 [1]: 7.78 µM (inactive); GI50 [2]: 9.48 µM (inactive); GI50 [3]: 1.6 µM (inactive); GI50 [4]: 1.89 µM (inactive); GI50 [5]: 1.31 µM (inactive); GI50 [6]: 3.13 µM (inactive); GI50 [7]: 3 µM (inactive); GI50 [8]: 4.86 µM (inactive); GI50 [9]: 3.92 µM (inactive); GI50 [10]: 5.62 µM (inactive); GI50 [11]: 3.33 µM (inactive); GI50 [12]: 2.67 µM (inactive); GI50 [13]: 7.48 µM (inactive); GI50 [14]: 5.77 µM (inactive); GI50 [15]: 3.25 µM (inactive); GI50 [16]: 5.6 µM (inactive); GI50 [17]: 4.89 µM (inactive); GI50 [18]: 3.92 µM (inactive); GI50 [19]: 4.86 µM (inactive); GI50 [20]: 10.7 µM (inactive); GI50 [21]: 4.92 µM (inactive); GI50 [22]: 2.56 µM (inactive); GI50 [23]: 5.82 µM (inactive); GI50 [24]: 13.1 µM (inactive); GI50 [25]: 1.58 µM (inactive); GI50 [26]: 3.18 µM (inactive); GI50 [27]: 1.86 µM (inactive); GI50 [28]: 4.49 µM (inactive); GI50 [29]: 4.06 µM (inactive); GI50 [30]: 4.68 µM (inactive); GI50 [31]: 3.16 µM (inactive); GI50 [32]: 4.67 µM (inactive); GI50 [33]: 8.61 µM (inactive); GI50 [34]: 2.76 µM (inactive); GI50 [35]: 4.06 µM; GI50 [36]: 4.53 µM (inactive); GI50 [37]: 5.73 µM (inactive); GI50 [38]: 1.87 µM (inactive)

Q: `COC(O)C(=O)c1c2c(cc3c1CC1(Cc4cc5c(cc4C1)CCC5)C3)CCC2` (stereo not given) was tested. Which GI50 [39] did it give?
A: 18.2 µM (inactive)

Q: And the GI50 [40]?
A: 18.7 µM (inactive)

Q: And the GI50 [1]?
A: 18.5 µM (inactive)

Q: And the GI50 [41]?
A: 17.7 µM (inactive)

Q: And the GI50 [2]?
A: 17.3 µM (inactive)

Q: What about the GI50 [3] of the same compound?
A: 7.13 µM (inactive)

Q: What about the GI50 [42] of the same compound?
A: 13.2 µM (inactive)

Q: What about the GI50 [4] of the same compound?
A: 15.8 µM (inactive)

Q: And the GI50 [43]?
A: 8.02 µM (inactive)

Q: And the GI50 [6]?
A: 15.6 µM (inactive)

Q: And the GI50 [44]?
A: 4.33 µM (inactive)

Q: What about the GI50 [45] of the same compound?
A: 18.1 µM (inactive)

Q: What about the GI50 [7] of the same compound?
A: 19.7 µM (inactive)

Q: What about the GI50 [46] of the same compound?
A: 17.3 µM (inactive)

Q: What about the GI50 [8] of the same compound?
A: 15.9 µM (inactive)

Q: What about the GI50 [9] of the same compound?
A: 21.9 µM (inactive)

Q: What about the GI50 [47] of the same compound?
A: 2.7 µM (inactive)

Q: And the GI50 [10]?
A: 15.7 µM (inactive)

Q: What about the GI50 [11] of the same compound?
A: 23.6 µM (inactive)

Q: What about the GI50 [12] of the same compound?
A: 15.7 µM (inactive)

Q: And the GI50 [13]?
A: 17.1 µM (inactive)

Q: What about the GI50 [14] of the same compound?
A: 18.3 µM (inactive)

Q: What about the GI50 [15] of the same compound?
A: 16.2 µM (inactive)

Q: And the GI50 [16]?
A: 19.5 µM (inactive)

Q: And the GI50 [17]?
A: 16 µM (inactive)

Q: And the GI50 [19]?
A: 17.4 µM (inactive)

Q: What about the GI50 [48] of the same compound?
A: 16.4 µM (inactive)

Q: What about the GI50 [49] of the same compound?
A: 23.2 µM (inactive)

Q: And the GI50 [21]?
A: 16.3 µM (inactive)

Q: What about the GI50 [50] of the same compound?
A: 14.8 µM (inactive)

Q: And the GI50 [51]?
A: 17.9 µM (inactive)

Q: What about the GI50 [52] of the same compound?
A: 23.6 µM (inactive)

Q: What about the GI50 [22] of the same compound?
A: 9.33 µM (inactive)

Q: And the GI50 [23]?
A: 20.5 µM (inactive)

Q: What about the GI50 [24] of the same compound?
A: 14.1 µM (inactive)

Q: What about the GI50 [53] of the same compound?
A: 16 µM (inactive)

Q: What about the GI50 [25] of the same compound?
A: 17.3 µM (inactive)

Q: What about the GI50 [26] of the same compound?
A: 16.8 µM (inactive)

Q: What about the GI50 [27] of the same compound?
A: 16.7 µM (inactive)

Q: What about the GI50 [54] of the same compound?
A: 20.5 µM (inactive)

Q: And the GI50 [28]?
A: 13 µM (inactive)

Q: And the GI50 [55]?
A: 11.6 µM (inactive)

Q: What about the GI50 [29] of the same compound?
A: 3.99 µM (inactive)

Q: And the GI50 [30]?
A: 18.7 µM (inactive)

Q: What about the GI50 [32] of the same compound?
A: 8.73 µM (inactive)

Q: What about the GI50 [33] of the same compound?
A: 22.2 µM (inactive)

Q: What about the GI50 [34] of the same compound?
A: 16.6 µM (inactive)

Q: What about the GI50 [56] of the same compound?
A: 20 µM (inactive)

Q: And the GI50 [35]?
A: 20.7 µM

Q: And the GI50 [36]?
A: 17.7 µM (inactive)

Q: What about the GI50 [37] of the same compound?
A: 20.4 µM (inactive)

Q: And the GI50 [38]?
A: 14 µM (inactive)

Q: With `COc1ccc(C(=O)/C=C/c2ccc(OCCSCCCCCCCCCCSCCOc3ccc(/C=C/C(=O)c4ccc(OC)cc4)cc3)cc2)cc1` as the compound, how does the GI50 [40] read?
A: > 100 µM (inactive)

Q: What about the GI50 [1] of the same compound?
A: > 100 µM (inactive)

Q: And the GI50 [57]?
A: > 100 µM (inactive)

Q: And the GI50 [41]?
A: > 100 µM (inactive)

Q: What about the GI50 [2] of the same compound?
A: > 100 µM (inactive)

Q: And the GI50 [42]?
A: > 100 µM (inactive)

Q: And the GI50 [4]?
A: > 100 µM (inactive)

Q: And the GI50 [43]?
A: > 100 µM (inactive)

Q: What about the GI50 [5] of the same compound?
A: > 100 µM (inactive)

Q: And the GI50 [44]?
A: > 100 µM (inactive)

Q: What about the GI50 [45] of the same compound?
A: > 100 µM (inactive)

Q: And the GI50 [7]?
A: > 100 µM (inactive)

Q: What about the GI50 [46] of the same compound?
A: > 100 µM (inactive)

Q: And the GI50 [8]?
A: > 100 µM (inactive)

Q: What about the GI50 [9] of the same compound?
A: > 100 µM (inactive)

Q: And the GI50 [47]?
A: > 100 µM (inactive)

Q: What about the GI50 [11] of the same compound?
A: > 100 µM (inactive)

Q: What about the GI50 [12] of the same compound?
A: > 100 µM (inactive)

Q: And the GI50 [13]?
A: > 100 µM (inactive)

Q: What about the GI50 [14] of the same compound?
A: > 100 µM (inactive)

Q: What about the GI50 [15] of the same compound?
A: > 100 µM (inactive)

Q: What about the GI50 [16] of the same compound?
A: > 100 µM (inactive)

Q: And the GI50 [17]?
A: > 100 µM (inactive)

Q: What about the GI50 [18] of the same compound?
A: > 100 µM (inactive)

Q: What about the GI50 [19] of the same compound?
A: > 100 µM (inactive)

Q: What about the GI50 [49] of the same compound?
A: > 100 µM (inactive)

Q: What about the GI50 [20] of the same compound?
A: > 100 µM (inactive)

Q: And the GI50 [50]?
A: > 100 µM (inactive)

Q: What about the GI50 [52] of the same compound?
A: > 100 µM (inactive)

Q: And the GI50 [22]?
A: > 100 µM (inactive)

Q: And the GI50 [23]?
A: > 100 µM (inactive)

Q: What about the GI50 [24] of the same compound?
A: > 100 µM (inactive)

Q: What about the GI50 [53] of the same compound?
A: > 100 µM (inactive)

Q: And the GI50 [25]?
A: > 100 µM (inactive)

Q: And the GI50 [26]?
A: > 100 µM (inactive)

Q: What about the GI50 [27] of the same compound?
A: > 100 µM (inactive)

Q: And the GI50 [54]?
A: > 100 µM (inactive)

Q: And the GI50 [28]?
A: > 100 µM (inactive)

Q: What about the GI50 [55] of the same compound?
A: > 100 µM (inactive)

Q: What about the GI50 [29] of the same compound?
A: > 100 µM (inactive)

Q: What about the GI50 [30] of the same compound?
A: > 100 µM (inactive)

Q: What about the GI50 [31] of the same compound?
A: < 0.01 µM (active)

Q: And the GI50 [32]?
A: > 100 µM (inactive)

Q: What about the GI50 [33] of the same compound?
A: > 100 µM (inactive)

Q: What about the GI50 [34] of the same compound?
A: > 100 µM (inactive)

Q: And the GI50 [56]?
A: > 100 µM (inactive)

Q: What about the GI50 [58] of the same compound?
A: > 100 µM (inactive)

Q: What about the GI50 [35] of the same compound?
A: > 100 µM

Q: What about the GI50 [37] of the same compound?
A: > 100 µM (inactive)

Q: And the GI50 [38]?
A: > 100 µM (inactive)
